One test deals with MDA-MB-435. Description: In vitro proliferation assay (MTT), MDA-MB-435. It is filed as cell-based, human. Particulars: Homo sapiens, MDA-MB-435, MTT assay; value (SD, n) where given; read-out: MB-435 Breast (IC50 µM). As for the experimental part: (§1) The proliferation of tumor cells can be measured using a tetrazolium salt-based assay known as the MTT (3-[4,5-Dimethylthiazol-2-yl]-2,5-diphenyltetrazolium bromide) assay. […] For the assay, the cell lines are plated onto 96 well plates at 1000 to 2500 cells/well (depending on the properties of the individual cell lines), left to attach and recover overnight. […] After 3 days, the cells are incubated with MTT dye (3-[4,5-Dimethylthiazol-2-yl]-2,5-diphenyltetrazolium bromide, Sigma # M5655, 10 mg/ml in Hank's Buffered Saline) to estimate the amount of live cells remaining vs. concentration for the test compounds. […] The MTT and culture medium is then removed from the cultures and 200 µl of DMSO is added to solubilize the dye from the cell layer. The absorbance at 570 nm is determined for each culture using a Spectramax plate reader (Molecular Devices).
(§2) IC50s were determined from the raw data from either the MTT or SRB assays.
(§3) All of the cell lines were obtained from American Type Tissue Collection, with the ATCC accession number in parentheticals. MCF-7 and MDA-MB-231 cells were grown in improved minimum essential medium (Biofluids) without phenol red, supplemented with 5 % fetal bovine serum, 0.01 mg/ml gentamicin and 3 mM L-glutamine.
(In general: Tetrazolium assays rely on reduction of a dye to a coloured formazan, in cell work by metabolically active cells.)

Another test has as its system PC-3. Description: In vitro proliferation assay (MTT), PC-3. It is filed as cell-based, human. Particulars: Homo sapiens, PC-3, MTT assay; value (SD, n) where given; read-out: PC-3 Prostate (IC50 µM). As for the experimental part: as §1, §2, §3
The next test deals with cdk2/cyclin E (Homo sapiens, UniProt P24941). Description: Cyclin-dependent kinase assay, cdk2/cyclin E. Particulars: CDK2 IC50, nM, GST-pRb substrate, 10 µM ATP.
In another test the target is cdk1/cyclin B (Homo sapiens, UniProt P06493). Description: Cyclin-dependent kinase assay, cdk1/cyclin B. Particulars: CDK1 IC50, nM, Histone H1, 10 µM ATP.
For the next test, the target named is cdk4/cyclin D1 (Homo sapiens, UniProt P11802). Description: Cyclin-dependent kinase assay, cdk4/cyclin D1. It is filed as biochemical. The note with it: cyclin D1/cdk4; GST-pRb substrate, 10 µM ATP.

Counter-ions that a name gives are not always drawn.

Sequence of cdk4/cyclin D1 (P11802 whole entry): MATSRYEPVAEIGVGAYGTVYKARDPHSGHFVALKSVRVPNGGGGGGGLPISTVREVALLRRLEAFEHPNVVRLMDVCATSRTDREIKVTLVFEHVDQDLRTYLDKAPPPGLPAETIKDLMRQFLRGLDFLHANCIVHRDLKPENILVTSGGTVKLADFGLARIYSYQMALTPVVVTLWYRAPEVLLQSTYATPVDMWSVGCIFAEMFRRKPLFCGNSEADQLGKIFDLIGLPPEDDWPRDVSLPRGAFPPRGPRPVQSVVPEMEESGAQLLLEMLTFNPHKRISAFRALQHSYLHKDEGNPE
Sequence of cdk4/cyclin D1 (P24385 whole entry partner): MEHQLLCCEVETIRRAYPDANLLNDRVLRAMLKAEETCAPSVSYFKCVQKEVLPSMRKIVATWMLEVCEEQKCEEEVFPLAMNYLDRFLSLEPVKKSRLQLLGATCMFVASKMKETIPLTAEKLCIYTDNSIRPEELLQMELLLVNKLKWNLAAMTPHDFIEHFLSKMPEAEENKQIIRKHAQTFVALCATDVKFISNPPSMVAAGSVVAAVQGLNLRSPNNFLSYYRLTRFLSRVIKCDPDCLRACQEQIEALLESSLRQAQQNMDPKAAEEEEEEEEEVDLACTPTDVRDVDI
Sequence of cdk1/cyclin B (P06493 whole entry): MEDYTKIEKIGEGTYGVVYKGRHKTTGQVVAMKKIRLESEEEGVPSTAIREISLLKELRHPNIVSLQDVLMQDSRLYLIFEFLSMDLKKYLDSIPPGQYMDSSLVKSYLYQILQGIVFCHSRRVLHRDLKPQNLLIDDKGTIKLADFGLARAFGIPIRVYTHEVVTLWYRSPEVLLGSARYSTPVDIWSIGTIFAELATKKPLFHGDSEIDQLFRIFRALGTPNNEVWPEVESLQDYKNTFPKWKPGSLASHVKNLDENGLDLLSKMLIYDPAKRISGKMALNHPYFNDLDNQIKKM
Sequence of cdk1/cyclin B (P14635 whole entry partner): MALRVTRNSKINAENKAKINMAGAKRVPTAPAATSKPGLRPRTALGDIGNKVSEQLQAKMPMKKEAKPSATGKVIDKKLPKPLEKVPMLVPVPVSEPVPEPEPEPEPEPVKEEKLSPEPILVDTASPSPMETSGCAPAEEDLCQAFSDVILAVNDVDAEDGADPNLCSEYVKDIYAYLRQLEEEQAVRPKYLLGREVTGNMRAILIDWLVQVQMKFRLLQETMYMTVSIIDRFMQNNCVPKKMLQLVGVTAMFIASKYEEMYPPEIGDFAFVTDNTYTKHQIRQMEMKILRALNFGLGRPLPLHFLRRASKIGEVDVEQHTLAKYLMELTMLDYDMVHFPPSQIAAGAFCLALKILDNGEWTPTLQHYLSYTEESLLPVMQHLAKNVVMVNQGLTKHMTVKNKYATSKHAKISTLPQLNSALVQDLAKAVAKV

One may read the IC50 as the concentration needed to halve the response being measured. Regarding `NC1CCC(Nc2nc(NC3CCN(C(=O)C4CC4c4ccccc4)CC3)c3ncn(C4CCCC4)c3n2)CC1` (racemic) [compound 43, (±)-trans-1-{4-[2-(4-Amino-cyclohexylamino)-9-cyclopentyl-9H-purin-6-ylamino]-piperidin-1-y1}-1-(2-phenyl-cyclopropyl)-methanone dihydrochloride], the IC50 in the test with MDA-MB-435 was found to be 0.47 µM; with PC-3 it was 0.59 µM; on cdk2/cyclin E it was 77 nM.

With `N[C@H]1CC[C@H](Nc2nc(NC3CCN(C(=O)C(O)c4ccccc4)CC3)c3ncn(C4CCCC4)c3n2)CC1` (mixture of isomers) [compound 50, (±)-trans-1-{4-[2-(4-Amino-cyclohexylamino)-9-cyclopentyl-9H-purin-6-ylamino]-piperidin-1-yl}-2-hydroxy-2-phenyl-ethanone dihydrochloride], the IC50 came to 1.67 µM with MDA-MB-435; 43 nM on cdk1/cyclin B; 206 nM at cdk4/cyclin D1; 1.58 µM in the test on PC-3; 44 nM on cdk2/cyclin E.

`CCCCC(CC)C(=O)N1CCC(Nc2nc(N[C@H]3CC[C@H](N)CC3)nc3c2ncn3C2CCCC2)CC1` (mixture of isomers) [compound 57, (±)-trans-1-{4-[2-(4-Amino-cyclohexylamino)-9-cyclopentyl-9H-purin-6-ylamino]-piperidin-1-yl}-2-ethyl-hexan-1-one dihydrochloride]: the IC50 is 0.96 µM in the test with MDA-MB-435; 193 nM on cdk1/cyclin B; 1300 nM on cdk4/cyclin D1; 1.13 µM in the test on PC-3; 480 nM against cdk2/cyclin E.

With `CCCCC(CC)COC(=O)N1CCC(Nc2nc(N[C@H]3CC[C@H](N)CC3)nc3c2ncn3C2CCCC2)CC1` (mixture of isomers) [compound 97, (±)-trans-4-[2-(4-Amino-cyclohexylamino)-9-cyclopentyl-9H-purin-6-ylamino]-piperidine-1-carboxylic acid 2-ethyl-hexyl ester dihydrochloride], the results for the IC50 in the test on MDA-MB-435 and in the test on PC-3 were 1.52 µM and 1.65 µM, respectively.

For `N[C@H]1CC[C@H](Nc2nc(NC3CCN(C(=O)NC4CC4c4ccccc4)CC3)c3ncn(C4CCCC4)c3n2)CC1` (mixture of isomers) [compound 156, (±)-trans-4-[2-(4-Amino-cyclohexylamino)-9-cyclopentyl-9H-purin-6-ylamino]-piperidine-1-carboxylic acid (2-phenyl-cyclopropyl)-amide dihydrochloride], the IC50 in the test on MDA-MB-435 was found to be 0.28 µM; on cdk1/cyclin B, 75 nM; against cdk4/cyclin D1, 1620 nM; with PC-3, 0.39 µM; against cdk2/cyclin E, 79 nM.

Regarding `N[C@H]1CC[C@H](Nc2nc(NC3CCN(C(=O)c4ccccc4Br)CC3)c3ncn(C4CCCC4)c3n2)CC1` [compound 13, trans-1-{4-[2-(4-Amino-cyclohexylamino)-9-cyclopentyl-9H-purin-6-ylamino]-piperidin-1-yl}-1-(2-bromo-phenyl)-methanone], the IC50 in the test with MDA-MB-435 stood at 2.89 µM; against cdk1/cyclin B it was 197 nM; against cdk4/cyclin D1, 373 nM; with PC-3 it was 2.55 µM; against cdk2/cyclin E, 364 nM.

In the case of `CCCCc1ccc(C(=O)N2CCC(Nc3nc(N[C@H]4CC[C@H](N)CC4)nc4c3ncn4C3CCCC3)CC2)cc1` [compound 21, trans-1-{4-[2-(4-Amino-cyclohexylamino)-9-cyclopentyl-9H-puxin-6-ylamino]-piperidin-1-yl}-1-(4-butyl-phenyl)-methanone], the results for the IC50 with MDA-MB-435, in the test with PC-3 and at cdk2/cyclin E were 1.43 µM, 1.45 µM and 121 nM, respectively.

As for `CCCCCCCc1ccc(C(=O)N2CCC(Nc3nc(N[C@H]4CC[C@H](N)CC4)nc4c3ncn4C3CCCC3)CC2)cc1` [compound 24, trans-1-{4-[2-(4-Amino-cyclohexylamino)-9-cyclopentyl-9H-purin-6-ylamino]-piperidin-1-yl}-1-(4-heptyl-phenyl)-methanone], the IC50 stood at 2.18 µM with MDA-MB-435 and 3.97 µM with PC-3.

In the case of `N[C@H]1CC[C@H](Nc2nc(NC3CCN(C(=O)c4ccc([N+](=O)[O-])cc4)CC3)c3ncn(C4CCCC4)c3n2)CC1` [compound 27, trans-1-{4-[2-(4-Amino-cyclohexylamino)-9-cyclopentyl-9H-purin-6-ylamino]-piperidin-1-yl}-1-(4-nitro-phenyl)-methanone], the IC50 in the test on MDA-MB-435 was found to be 1.73 µM; in the test on PC-3, 2 µM.

In the case of `CC(C)=CC(=O)N1CCC(Nc2nc(N[C@H]3CC[C@H](N)CC3)nc3c2ncn3C2CCCC2)CC1` [compound 30, trans 1-{4-[2-(4-Amino-cyclohexylamino)-9-cyclopentyl-9#H!-purin-6-ylamino]-piperidin-1-yl}-3-methyl-but-2-en-1-one dihydrochloride], the IC50 was 0.75 µM with MDA-MB-435, 0.8 µM in the test on PC-3 and 77 nM at cdk2/cyclin E.

In the case of `N[C@H]1CC[C@H](Nc2nc(NC3CCN(C(=O)/C=C/c4ccccc4)CC3)c3ncn(C4CCCC4)c3n2)CC1` [compound 62, trans-(E)-1-{4-[2-(4-Amino-cyclohexylamino)-9-cyclopentyl-9H-purin-6-ylamino]-piperidin-1-yl}-3-phenyl-propenone dihydrochloride], inhibition on cdk2/cyclin E was half-maximal at 66 nM (IC50).

As to `N[C@H]1CC[C@H](Nc2nc(NC3CCN(C(=O)OCc4ccccc4)CC3)c3ncn(C4CCCC4)c3n2)CC1` [compound 90, trans-4-[2-(4-Amino-cyclohexylamino)-9-cyclopentyl-9H-purin-6-ylamino]-piperidine-1-carboxylic acid benzyl ester dihydrochloride], the figures for the IC50 in the test on MDA-MB-435 and in the test with PC-3 were 0.38 µM and 0.58 µM, respectively.

For the compound `CC(C)COC(=O)N1CCC(Nc2nc(N[C@H]3CC[C@H](N)CC3)nc3c2ncn3C2CCCC2)CC1` [compound 91, trans-4-[2-(4-Amino-cyclohexylamino)-9-cyclopentyl-9H-purin-6-ylamino]-piperidine-1-carboxylic acid isobutyl ester dihydrochloride], the 50% inhibitory concentration (IC50) was determined as 0.36 µM with MDA-MB-435 and 0.37 µM in the test on PC-3.

For the compound `CCCOC(=O)N1CCC(Nc2nc(N[C@H]3CC[C@H](N)CC3)nc3c2ncn3C2CCCC2)CC1` [compound 96, trans-4-[2-(4-Amino-cyclohexylamino)-9-cyclopentyl-9H-purin-6-ylamino]-piperidine-1-carboxylic acid propyl ester dihydrochloride], the IC50 in the test on MDA-MB-435 and with PC-3 was 0.35 µM throughout.

Regarding `CCCCCCOC(=O)N1CCC(Nc2nc(N[C@H]3CC[C@H](N)CC3)nc3c2ncn3C2CCCC2)CC1` [compound 98, trans-4-[2-(4-Amino-cyclohexylamino)-9-cyclopentyl-9H-purin-6-ylamino]-piperidine-1-carboxylic acid hexyl ester dihydrochloride], the figures for the IC50 in the test with MDA-MB-435 and in the test on PC-3 were 0.66 µM and 0.82 µM, respectively.

As for `COc1cc(COC(=O)N2CCC(Nc3nc(N[C@H]4CC[C@H](N)CC4)nc4c3ncn4C3CCCC3)CC2)c([N+](=O)[O-])cc1OC` [compound 101, trans-4-[2-(4-Amino-cyclohexylamino)-9-cyclopentyl-9H-purin-6-ylamino]-piperidine-1-carboxylic acid 4,5-dimethoxy-2-nitro-benzyl ester dihydrochloride], the IC50 worked out at 0.24 µM in the test with MDA-MB-435, 31 nM against cdk1/cyclin B, 0.27 µM in the test on PC-3 and 80 nM against cdk2/cyclin E.

As to `CC(C)(C)COC(=O)N1CCC(Nc2nc(N[C@H]3CC[C@H](N)CC3)nc3c2ncn3C2CCCC2)CC1` [compound 103, trans-4-[2-(4-Amino-cyclohexylamino)-9-cyclopentyl-9H-purin-6-ylamino]-piperidine-1-carboxylic acid 2,2-dimethyl-propyl ester dihydrochloride], the IC50 in the test on MDA-MB-435 was 0.51 µM; in the test on PC-3, 0.44 µM.

Take `N[C@H]1CC[C@H](Nc2nc(NC3CCN(S(=O)(=O)c4cccs4)CC3)c3ncn(C4CCCC4)c3n2)CC1` [compound 128, trans-N^2&-(4-Amino-cyclohexyl)-9-cyclopentyl-N^6-[1-(thiophene-2-sulfonyl)-piperidin-4-yl]-9H-purine-2,6-diamine dihydrochloride]: the IC50 was 0.49 µM with MDA-MB-435, 0.57 µM with PC-3 and 7 nM on cdk2/cyclin E.

For the compound `Cc1cccc(NC(=O)N2CCC(Nc3nc(N[C@H]4CC[C@H](N)CC4)nc4c3ncn4C3CCCC3)CC2)c1` [compound 210, trans-4-[2-(4-Amino-cyclohexylamino)-9-cyclopentyl-9H-purin-6-ylamino]-piperidine-1-carboxylic acid (3-methyl-phenyl)-amide dihydrochloride], the IC50 at cdk1/cyclin B turned out to be 20 nM; on cdk4/cyclin D1 it was 74 nM; against cdk2/cyclin E, 28 nM.

(Values after patent EP1377579B1 (Aventis Pharmaceuticals Inc., priority 2000, dated 2002).)
